Test results published in US7388016B2, “Dibenzonaphthyridine derivatives and methods of use thereof” (Wyeth, priority 2005, dated 2008).

Target: T1, PDK-1 (Homo sapiens, UniProt O15530)
T1 sequence (O15530 1-556): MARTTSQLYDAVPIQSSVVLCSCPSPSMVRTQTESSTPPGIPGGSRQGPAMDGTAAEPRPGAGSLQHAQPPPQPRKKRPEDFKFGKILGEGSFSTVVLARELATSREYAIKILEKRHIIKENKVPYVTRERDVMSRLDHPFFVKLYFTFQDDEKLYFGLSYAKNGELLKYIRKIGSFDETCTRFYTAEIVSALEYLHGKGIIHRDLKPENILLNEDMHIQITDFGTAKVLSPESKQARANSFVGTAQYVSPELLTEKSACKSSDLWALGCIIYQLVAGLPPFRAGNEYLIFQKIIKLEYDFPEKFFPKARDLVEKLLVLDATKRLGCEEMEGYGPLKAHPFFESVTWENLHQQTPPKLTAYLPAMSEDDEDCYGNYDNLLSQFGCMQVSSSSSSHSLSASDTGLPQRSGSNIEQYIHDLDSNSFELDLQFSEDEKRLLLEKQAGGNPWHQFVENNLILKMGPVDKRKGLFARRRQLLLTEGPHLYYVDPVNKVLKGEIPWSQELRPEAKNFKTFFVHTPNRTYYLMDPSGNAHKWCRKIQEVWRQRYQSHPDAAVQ
Experiment: In vitro PDK-1 inhibition ELISA assay (phosphorylation of SGK1 on Threonine 256)
Type: biochemical
Conditions: PDK-1 phosphorylates 6xHIS tagged SGK1, 17 minutes reaction, chemiluminescent detection
Protocol: The ability of illustrative Dibenzonaphthyridine Derivatives to inhibit PDK-1 in vitro can be determined using the ELISA assay as decribed in Kobayashi et al., Biochem. J. 339:319-328 (1999) and Park et al., EMBO J. 18:3024-3033 (1999).
In this in vitro assay, PDK-1 kinase phosphorylates SGK1 on Threonine 256. After 17 minutes, the reaction is quenched via the addition of urea. The 6×HIS tagged SGK1 is then bound to 96 well Ni-NTA HisSorb plates and the phosphorylated SGK1 is detected using rabbit derived anti-phospho SGK antibody as the primary antibody and HRP coupled anti-rabbit antibody as the secondary antibody. HRP is then detected using a Chemiluminescent Substrate.

Going from COc1cc2c(cc1NCCN1CCCC1)ncc1c(N)nc3c(C)c(N)ccc3c12 [Ib-13, 11-methoxy-4-methyl-N^10-(2-pyrrolidin-1-ylethyl)dibenzo[c,f]-2,7-naphthyridine-3,6,10-triamine] to COc1cc2c(cc1NCCCN1CCCC1)ncc1c(N)nc3c(C)c(N)ccc3c12 [Ib-12, 11-methoxy-4-methyl-N^10-(3-pyrrolidin-1-ylpropyl)dibenzo[c,f]-2,7-naphthyridine-3,6,10-triamine], the IC50 falls from 3710 nM to 846 nM (4.4-fold). The second is the more potent here.

Compared with CNc1nc2c(C)c(N)ccc2c2c1cnc1cc(OC)c(OC)cc12 [Ic-1, 10,11-dimethoxy-N-6,4-dimethyldibenzo[c,f]-2,7-naphthyridine-3,6-diamine], COc1cc2ncc3c(N)nc4c(C)c(O)ccc4c3c2cc1OC [Ib-50, 6-amino-10,11-dimethoxy-4-methyldibenzo[c,f]-2,7-naphthyridin-3-ol] is 800-fold lower in IC50: 36600 nM for the first, 46 nM for the second.

Going from COc1cc2ncc3c(N)nc4cc(N)ccc4c3c2cc1OC [Ib-38, 10,11-dimethoxydibenzo[c,f]-2,7-naphthyridine-3,6-diamine] to COc1cc2ncc3c(N)nc4c(C)cccc4c3c2cc1OC [Ib-39, 10,11-dimethoxy-4-methyldibenzo[c,f]-2,7-naphthyridin-6-amine], the IC50 falls from 670 nM to 258 nM (2.6-fold). The second is the more potent here.

First: COc1cc2c(cc1OCC1CCN(C)CC1)ncc1c(N)nc3c(C)c(N)ccc3c12 [Ib-16, 11-methoxy-4-methyl-10-[(1-methylpiperidin-4-yl)methoxy]dibenzo[c,f]-2,7-naphthyridine-3,6-diamine]
Second: COc1cc2c(cc1OCCC1CCN(C)CC1)ncc1c(N)nc3c(C)c(N)ccc3c12 [Ib-33, 11-methoxy-4-methyl-10-[2-(1-methylpiperidin-4-yl)ethoxy]dibenzo[c,f]-2,7-naphthyridine-3,6-diamine]
The IC50 of the first is 2.3-fold higher: 878 nM for the first, 384 nM for the second.

First: COc1cc2c(cc1OCCc1ccc(N(C)C)cc1)ncc1c(N)nc3c(C)c(N)ccc3c12 [Ib-32, 10-{2-[4-(dimethylamino)phenyl]ethoxy}-11-methoxy-4-methyldibenzo[c,f]-2,7-naphthyridine-3,6-diamine]
Second: COc1cc2c(cc1OCCN(C)C)ncc1c(N)nc3c(C)c(N)ccc3c12 [Ib-20, 10-[2-(dimethylamino)ethoxy]-11-methoxy-4-methyldibenzo[c,f]-2,7-naphthyridine-3,6-diamine]
The IC50 of the first is 1.8-fold higher: 667 nM for the first, 377 nM for the second. The second is the more potent here.

COc1cc2c(cc1NCCCN1CCOCC1)ncc1c(N)nc3c(C)c(N)ccc3c12 [Ib-8, 11-methoxy-4-methyl-N^10-(3-morpholin-4-ylpropyl)dibenzo[c,f]-2,7-naphthyridine-3,6,10-triamine] and COc1cc2c(cc1NCCN1CCOCC1)ncc1c(N)nc3c(C)c(N)ccc3c12 [Ib-9, 11-methoxy-4-methyl-N^10-(2-morpholin-4-ylethyl)dibenzo[c,f]-2,7-naphthyridine-3,6,10-triamine] are within 1.5-fold of each other in IC50: 290 nM for the first, 296 nM for the second.

COc1cc2c(cc1N(C)CCCN(C)C)ncc1c(N)nc3c(C)c(N)ccc3c12 [Ib-5, N^10-[3-(dimethylamino)propyl]-11-methoxy-N^10,4-dimethyldibenzo[c,f]-2,7-naphthyridine-3,6,10-triamine] and COc1cc2c(cc1N(C)CCN(C)C)ncc1c(N)nc3c(C)c(N)ccc3c12 [Ib-6, N^10-[2-(dimethylamino)ethyl]-11-methoxy-N^10,4-dimethyldibenzo[c,f]-2,7-naphthyridine-3,6,10-triamine] are within 1.5-fold of each other in IC50: 1010 nM for the first, 1170 nM for the second.

COc1cc2c(cc1OCCN1CCCCCC1)ncc1c(N)nc3c(C)c(N)ccc3c12 [Ib-28, 10-(2-azepan-1-ylethoxy)-11-methoxy-4-methyldibenzo[c,f]-2,7-naphthyridine-3,6-diamine] and COc1cc2c(cc1OCCN1CC1)ncc1c(N)nc3c(C)c(N)ccc3c12 [Ib-19, 10-(2-aziridin-1-ylethoxy)-11-methoxy-4-methyldibenzo[c,f]-2,7-naphthyridine-3,6-diamine] are within 1.5-fold of each other in IC50: 350 nM for the first, 482 nM for the second.

Compared with COc1cc2c(cc1F)ncc1c(N)nc3c(C)c(N)ccc3c12 [Ib-4, 10-fluoro-11-methoxy-4-methyldibenzo[c,f]-2,7-naphthyridine-3,6-diamine], COc1cc2c(cc1O)ncc1c(N)nc3c(C)c(N)ccc3c12 [Ib-48, 7,10-diamino-2-methoxy-9-methyldibenzo[c,f]-2,7-naphthyridin-3-ol] is 3.5-fold higher in IC50: 388 nM for the first, 1370 nM for the second. The first is the more potent here.

First: COc1cc2c(cc1NCCCN1CCN(C)CC1)ncc1c(N)nc3c(C)c(N)ccc3c12 [Ib-7, 11-methoxy-4-methyl-N^10-[3-(4-methylpiperazin-1-yl)propyl]dibenzo[c,f]-2,7-naphthyridine-3,6,10-triamine]
Second: COc1cc2c(cc1OCCN1CCOCC1)ncc1c(N)nc3c(C)c(N)ccc3c12 [Ib-10, 11-methoxy-4-methyl-10-(2-morpholin-4-ylethoxy)dibenzo[c,f]-2,7-naphthyridine-3,6-diamine]
The IC50 of the first is 9.7-fold higher: 555 nM for the first, 57.5 nM for the second.

First: COc1cc2c(cc1OCCC(C)C)ncc1c(N)nc3c(C)c(N)ccc3c12 [Ib-40, 11-methoxy-4-methyl-10-(3-methylbutoxy)dibenzo[c,f]-2,7-naphthyridine-3,6-diamine]
Second: COc1cc2c(cc1OCCCl)ncc1c(N)nc3c(C)c(N)ccc3c12 [Ib-18, 10-(2-chloroethoxy)-11-methoxy-4-methyldibenzo[c,f]-2,7-naphthyridine-3,6-diamine]
The IC50 of the first is 28-fold higher: 1180 nM for the first, 42.5 nM for the second. The second is the more potent here.

CCOc1cc2ncc3c(N)nc4c(C)c(N)ccc4c3c2cc1OCC [Ib-3, 10,11-diethoxy-4-methyldibenzo[c,f]-2,7-naphthyridine-3,6-diamine] and CCN(CC)CCOc1cc2ncc3c(N)nc4c(C)c(N)ccc4c3c2cc1OC [Ib-23, 10-[2-(diethylamino)ethoxy]-11-methoxy-4-methyldibenzo[c,f]-2,7-naphthyridine-3,6-diamine] are within 1.5-fold of each other in IC50: 273 nM for the first, 347 nM for the second.

COCCOc1cc2ncc3c(N)nc4c(C)c(N)ccc4c3c2cc1OCCOC [Ib-17, 10,11-bis(2-methoxyethoxy)-4-methyldibenzo[c,f]-2,7-naphthyridine-3,6-diamine] and CCN(CC)CCCOc1cc2ncc3c(N)nc4c(C)c(N)ccc4c3c2cc1OC [Ib-27, 10-[3-(diethylamino)propoxy]-11-methoxy-4-methyldibenzo[c,f]-2,7-naphthyridine-3,6-diamine] are within 1.5-fold of each other in IC50: 275 nM for the first, 295 nM for the second.

First: COc1cc2c(cc1OCC1CCCN(C)C1)ncc1c(N)nc3c(C)c(N)ccc3c12 (stereo not drawn) [Ib-34, 11-methoxy-4-methyl-10-[(1-methylpiperidin-3-yl)methoxy]dibenzo[c,f]-2,7-naphthyridine-3,6-diamine]
Second: COc1cc2c(cc1OCCC1CCCN1C)ncc1c(N)nc3c(C)c(N)ccc3c12 (stereo not drawn) [Ib-25, 11-methoxy-4-methyl-10-[2-(1-methylpyrrolidin-2-yl)ethoxy]dibenzo[c,f]-2,7-naphthyridine-3,6-diamine]
The IC50 of the first is 6.1-fold higher: 1770 nM for the first, 288 nM for the second.

Compared with COc1cc2c(cc1OCCCN1CCCC1=O)ncc1c(N)nc3c(C)c(N)ccc3c12 [Ib-35, 1-{3-[(7,10-diamino-2-methoxy-9-methyldibenzo[c,f]-2,7-naphthyridin-3-yl)oxy]propyl}pyrrolidin-2-one], COc1cc2c(cc1OC[C@@H]1CCCN1C[C@@H]1CCCN1C)ncc1c(N)nc3c(C)c(N)ccc3c12 [Ib-44, 11-methoxy-4-methyl-10-[((2S)-1-{[(2S)-1-methylpyrrolidin-2-yl]methyl}pyrrolidin-2-yl)methoxy]dibenzo[c,f]-2,7-naphthyridine-3,6-diamine] is 8.5-fold higher in IC50: 111 nM for the first, 949 nM for the second. The first is the more potent here.
